Measured values taken from US11358985B2, “Tripeptide compound, preparation method therefor, and application thereof” (NORTHWEST UNIVERSITY, priority 2014, dated 2022).

Experiments:
[1] = target: angiotensin-converting enzyme (ACE) (UniProt P12822); assay type: biochemical; settings: substrate HHL, 37° C., pH 8.3, hippuric acid at 228 nm
[2] = system: mouse ACE; assay: In vivo ACE activity test: ACE content in kidney tissue by double antibody sandwich ELISA; set-up: species or system Kunming mice; settings: for ACE content: male Kunming mice, kidney homogenate, intragastric 0.05 mmol/kg once a day for 7 days, 2 h after final dose
[3] = system: spontaneously hypertensive rats (SHR); assay: Blood pressure in SHR rats after multiple administrations; assay type: in vivo, rat
Procedure: (§1) SPF grade male spontaneously hypertensive model rats (SHR) (male, 12 weeks old, body weight 200 g±20 g) were divided into three groups: blank group, control group and sample group, with 6 rats each group. Animals were housed in the Shaanxi Provincial Biomedical Animal Laboratory at the School of Life Sciences of Northwest University at a temperature of 22° C. and a humidity of 50%, with 12 hours light/dark cycle and free to eat and drink water. The SHR rats were trained to adapt to blood pressure measurements after 5 days of adaptation to the environment. Prior to administration, the basal blood pressure of the rats in each group was measured and the systolic blood pressure was between 190±5 mmHg.
(§2) The particular measurement steps: the conscious rats were placed in the fixed box of the blood pressure meter. […] After the signal was stabilized, the blood pressure was measured and the 5 readings with a change in blood pressure less than 10 mmHg were recorded, with an interval of 10 seconds. […]
According to the above method and dose, rats were administered intragastrically continuously for 7 days, once a day. Blood pressure was measured 2 hours after administration. After the end of the administration, blood pressure was measured continuously for 7 days, once a day, and the change in blood pressure was recorded.

[4] = system: spontaneously hypertensive rats (SHR); assay: Blood pressure in SHR rats after one administration (tail pulse indirect pressure measurement); assay type: in vivo, rat
Procedure: as §1
The systolic blood pressure of the experimental rats was measured by tail pulse indirect pressure measurement. […]
as §2, with “meter. A heating plate at 30° C. was provided in the bottom of the fixed box, which was preheated for 10 min to expand the local blood vessels.” for “meter.”

angiotensin-converting enzyme (ACE), sequence (P12822 whole entry): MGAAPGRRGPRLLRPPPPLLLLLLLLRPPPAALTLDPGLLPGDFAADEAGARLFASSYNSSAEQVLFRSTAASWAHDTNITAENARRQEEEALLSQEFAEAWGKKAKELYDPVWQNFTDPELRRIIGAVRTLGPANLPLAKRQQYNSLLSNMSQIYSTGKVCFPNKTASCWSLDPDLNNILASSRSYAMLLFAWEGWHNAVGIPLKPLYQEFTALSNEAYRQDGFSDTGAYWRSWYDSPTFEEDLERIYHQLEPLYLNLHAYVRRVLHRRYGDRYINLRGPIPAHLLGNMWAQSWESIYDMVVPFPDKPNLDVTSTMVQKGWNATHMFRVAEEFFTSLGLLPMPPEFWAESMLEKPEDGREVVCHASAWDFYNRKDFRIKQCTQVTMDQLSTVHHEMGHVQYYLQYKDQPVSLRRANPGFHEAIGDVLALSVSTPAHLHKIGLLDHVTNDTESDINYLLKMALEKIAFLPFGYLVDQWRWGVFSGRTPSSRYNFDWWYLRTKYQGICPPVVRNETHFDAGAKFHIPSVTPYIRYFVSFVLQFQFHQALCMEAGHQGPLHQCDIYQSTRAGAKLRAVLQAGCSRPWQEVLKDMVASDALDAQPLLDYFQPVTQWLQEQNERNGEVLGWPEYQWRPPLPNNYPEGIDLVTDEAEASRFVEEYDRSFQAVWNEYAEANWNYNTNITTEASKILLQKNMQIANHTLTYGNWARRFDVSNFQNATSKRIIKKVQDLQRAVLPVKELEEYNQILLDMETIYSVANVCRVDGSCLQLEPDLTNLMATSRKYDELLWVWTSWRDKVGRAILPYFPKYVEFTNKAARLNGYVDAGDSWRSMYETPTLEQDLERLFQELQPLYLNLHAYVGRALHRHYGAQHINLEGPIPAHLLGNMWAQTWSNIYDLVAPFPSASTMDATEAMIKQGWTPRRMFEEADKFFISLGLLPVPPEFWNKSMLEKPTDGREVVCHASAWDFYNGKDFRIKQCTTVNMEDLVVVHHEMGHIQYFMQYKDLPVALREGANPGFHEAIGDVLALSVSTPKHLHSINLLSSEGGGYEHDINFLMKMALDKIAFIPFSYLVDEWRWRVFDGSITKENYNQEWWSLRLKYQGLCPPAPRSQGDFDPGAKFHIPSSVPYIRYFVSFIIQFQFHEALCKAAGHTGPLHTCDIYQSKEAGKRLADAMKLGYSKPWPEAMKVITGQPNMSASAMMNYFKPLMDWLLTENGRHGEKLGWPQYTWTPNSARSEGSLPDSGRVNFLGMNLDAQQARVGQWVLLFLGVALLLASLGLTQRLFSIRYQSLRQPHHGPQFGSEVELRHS

Row | SMILES | IC50 [1] [nM] | ACE content [2] [pg/mL] | also measured
1 | CC1(C)C2CCC1(C)C(OC(=O)[C@@H]1CCCN1C(=O)[C@@H]1CCCN1C(=O)[C@H](O)Cc1ccc(O)c(O)c1)C2 (stereo in doubt) [Compound 221S-6a] | 43 ± 6 | 76 ± 5 | 
2 | C[C@H](NC(=O)[C@H](O)Cc1ccc(O)c(O)c1)C(=O)N1CCC[C@H]1C(=O)OC1CC2CCC1(C)C2(C)C (stereo partly drawn) [Compound 221S-1a] | 23 ± 9 | 64 ± 8 | dose dependence of effect on arterial systolic pressure ([3]; 7 days intragastric at different doses, 14 days (FIG. 5)): dose-dependent; antihypertensive effect (arterial systolic pressure) compared with captopril ([3]; intragastric once a day for 7 days, followed over 14 days (FIG. 4)): better antihypertensive effect than captopril; dose dependence of antihypertensive effect ([4]; single intragastric administration at different doses, within 6 hours (FIG. 3)): good dose-dependent relationship; antihypertensive effect (arterial systolic pressure) compared with captopril ([4]; single intragastric administration, within 6 hours (FIG. 2, 3)): antihypertensive effect was better than that of captopril; reduction of ACE content compared with captopril (in words) ([2]; intragastric 0.05 mmol/kg, 7 days, summary of Table 8): most significant reduction effect
3 | C[C@H](NC(=O)[C@@H](O)Cc1ccc(O)c(O)c1)C(=O)N1CCC[C@H]1C(=O)OC1CC2CCC1(C)C2(C)C (stereo partly drawn) [Compound 221S-1b] | 33 ± 6 | 78 ± 12 | 
4 | CC(C)[C@H](NC(=O)[C@H](O)Cc1ccc(O)c(O)c1)C(=O)N1CCC[C@H]1C(=O)OC1CC2CCC1(C)C2(C)C (stereo partly drawn) [Compound 221S-2a] | 37 ± 5 | 87 ± 8 | 
5 | CC(C)C[C@H](NC(=O)[C@H](O)Cc1ccc(O)c(O)c1)C(=O)N1CCC[C@H]1C(=O)OC1CC2CCC1(C)C2(C)C (stereo partly drawn) [Compound 221S-3a] | 27 ± 7 | 79 ± 7 | 
6 | CCC(C)[C@H](NC(=O)[C@H](O)Cc1ccc(O)c(O)c1)C(=O)N1CCC[C@H]1C(=O)OC1CC2CCC1(C)C2(C)C (stereo partly drawn) [Compound 221S-4a] | 34 ± 7 | 82 ± 10 | 
7 | CC(C)(C)[C@H](NC(=O)[C@H](O)Cc1ccc(O)c(O)c1)C(=O)N1CCC[C@H]1C(=O)OC1CC2CCC1(C)C2(C)C (stereo partly drawn) [Compound 221S-5a] | 28 ± 9 | 89 ± 11 | 
8 | CSCC[C@H](NC(=O)[C@H](O)Cc1ccc(O)c(O)c1)C(=O)N1CCC[C@H]1C(=O)OC1CC2CCC1(C)C2(C)C (stereo partly drawn) [Compound 221S-7a] | 78 ± 5 | 71 ± 9 | 
9 | CC1(C)C2CCC1(C)C(OC(=O)[C@@H]1CCCN1C(=O)[C@H](Cc1ccccc1)NC(=O)[C@H](O)Cc1ccc(O)c(O)c1)C2 (stereo partly drawn) [Compound 221S-8a] | 65 ± 5 | 80 ± 7 | 
10 | CC1(C)C2CCC1(C)C(OC(=O)[C@@H]1CCCN1C(=O)CNC(=O)[C@H](O)Cc1ccc(O)c(O)c1)C2 (stereo partly drawn) [Compound 221S-15a] | 33 ± 6 | 83 ± 11 | 
11 | COc1cc(/C=C/C(=O)N[C@@H](C)C(=O)N2CCC[C@H]2C(=O)OC2CC3CCC2(C)C3(C)C)ccc1O (stereo partly drawn) [Compound 221S-27a] | 44 ± 3 | 82 ± 11 | 
12 | C[C@H](NC(=O)/C=C/c1ccc(O)c(O)c1)C(=O)N1CCC[C@H]1C(=O)OC1CC2CCC1(C)C2(C)C (stereo partly drawn) [Compound 221S-28a] | 29 ± 7 | 79 ± 8 | 
13 | C[C@H](NC(=O)Cc1ccc(O)c(O)c1)C(=O)N1CCC[C@H]1C(=O)OC1CC2CCC1(C)C2(C)C (stereo partly drawn) [Compound 221S-29a] | 38 ± 5 | 85 ± 8 | 
14 | C[C@H](NC(=O)c1ccc(O)c(O)c1)C(=O)N1CCC[C@H]1C(=O)OC1CC2CCC1(C)C2(C)C (stereo partly drawn) [Compound 221S-30a] | 35 ± 6 | 75 ± 8 | 
15 | C[C@H](NC(=O)c1cc(O)c(O)c(O)c1)C(=O)N1CCC[C@H]1C(=O)OC1CC2CCC1(C)C2(C)C (stereo partly drawn) [Compound 221S-31a] | 31 ± 8 | 71 ± 13 | 
